From patent US20220248744A1, “NICOTINE MATERIALS, METHODS OF MAKING SAME, AND USES THEREOF” (The Research Foundation for the State University of New York, priority 2019, published 2022)

Key:
[1] = cited from earlier work
[2] = UV λ=300 nm, air flow, 1H NMR
Description: UV Photodegradation. […] Each sample was then irradiated with ultraviolet (UV) light in a home built vented box with air flow for 24 hours using four Southern New England Ultraviolet Company RPR—3000A UV bulbs (λ=300 nm). NMR analysis was then carried out on each sample to screen for any UV photodegradation of products.
UV Photodegradation Analysis. […] As such the stability of the produced crystalline nicotine salts were studied by placing them in a homemade UV irradiation box for 24 hours while airflow into the box was maintained. The pure coformers, as well as pure nicotine (FIG. 79), were also each tested as a standard for their respective nicotine salt. This test was designed to attempt to forcefully stress test and degrade the crystalline nicotine materials. NMR was selected as the most readily available means to quantify any degradation that may occur.

[3] = Thermal analysis (differential scanning calorimetry / melting point): thermodynamic stability; format: physicochemical; settings: based on DSC thermal analysis
Description: Differential Scanning calorimetry (DSC). A differential scanning calorimeter, model DSC Q200 (TA Instrument, USA) was used to measure the thermal transitions of the samples. About 10 mg of each synthesized compound was placed into an aluminum pan and sealed. Each sample, except (S)-nicotinium 2,6-Dihydroxybenzoate, was scanned from 0 to 150° C. at 20° C./min under nitrogen flow for at least 2 full cycles. (S)-nicotinium 2,6-Dihydroxybenzoate was scanned from 0 to 175° C. at 20° C./min under nitrogen flow for at least 2 full cycles.
Melting Point (MP): A Stuart SMP10 melting point apparatus was utilized to measure the melting point of each of the synthesized compounds. 4 replicates were run for each compound. The plateau temperature was set to 100° C. for each of the salts, except (S)-nicotinium D-malate, and then ramped at 2° C./minute. The plateau temperature was set to 80° C. for the (S)-nicotinium D-malate salt and ramped at 2° C./minute.
Thermal Analysis. […] This was confirmed via differential scanning calorimetry (DSC) by a very broad endotherm 116.4° C. […] This was confirmed by DSC where in the sharp endotherm at 123.5° C. indicated the melting of this (S)-nicotinium L-malate salt. […] This was confirmed via DSC, wherein the sharp endotherm at 95.2° C. The orthorhombic P212121 (S)-nicotinium DL-malate was initially observed as having a broad melting point of 76-78° C. The was confirmed via DSC wherein a melting point of 77.8° C., though with a very broad curve. […] Monoclinic P21 (S)-nicotinium 2,6-dihydroxybenzoate salt had the highest melting observed thus far. The sharp endotherm at 158.5° C. confirmed the observed melting point. Monoclinic P21 (S)-nicotinium 2,5-dihydroxyterephthalate was observed initially as having a tight melting point range of 196-198° C.

[4] = Aerosolization/Vaporization Analysis (iStick Pico with Sai atomizer, syringe as lung analog); settings: heating in bucket coil; decarboxylation of the acid coformer

SMILES | pKa (Strongest Acidic) [1] | also measured
O=C(O)c1c(O)cc(O)cc1O [2,4,6-Trihydroxybenzoic Acid] | 1.83 | –
O=C(O)c1cc(O)c(C(=O)O)cc1O [2,5-Dihydroxyterepthalic Acid] | – | degradation after 24 hours of UV irradiation [2]: no 2,5-dihydroxyterephthalic acid degradation
O=C(O)c1c(O)cccc1O [2,6-Dihydroxybenzoic Acid] | 1.51 | –
Nc1cccc(C(=O)O)c1O [3-Aminosalicylic Acid] | 2.90 | –
COc1ccc(C(=O)O)c(O)c1 [4-Methoxysalicylic Acid] | 3.09 | –
O=C(O)c1cc(Cc2ccc(O)c(C(=O)O)c2)ccc1O [5,5′-Methylenedisalicylic Acid] | 2.94 | –
COc1ccc(O)c(C(=O)O)c1 [5-Methoxysalicylic acid] | 2.52 | –
CN1CCC[C@H]1c1cccnc1.O=C(O)c1cc(O)c(C(=O)O)cc1O [(S)-nicotinium 2,5-dihydroxyterephthalate] | – | thermodynamic / thermal stability [3]: highest observed thermal stability; degradation after 24 hours of UV irradiation [2]: no degradation
CN1CCC[C@H]1c1cccnc1.O=C(O)c1c(O)cccc1O [(S)-nicotinium 2,6-dihydroxybenzoate] | – | thermodynamic / thermal stability [3]: highest observed thermal stability; degradation after 24 hours of UV irradiation [2]: no degradation
CN1CCCC1c1cccnc1.O=C(O)CC(O)C(=O)O [(S)-nicotinium D-malate] | – | thermodynamic / thermal stability [3]: thermodynamically less stable than either of the (S)-nicotinium L-malate salts; degradation after 24 hours of UV irradiation [2]: no degradation
CN1CCCC1c1cccnc1.O.O=C(O)c1cc(=O)[nH]c(=O)[nH]1 [(S)-nicotinium orotate monohydrate] | – | degradation after 24 hours of UV irradiation [2]: no degradation
NC(C(=O)O)C(=O)O [Aminomalonic Acid] | 0.45 | –
COC(=O)[C@H](Cc1ccccc1)NC(=O)[C@@H](N)CC(=O)O [Aspartame] | 3.53 | –
C[N+](C)(C)CC(=O)O [Betaine] | 2.26 | –
O=C(/C=C/c1ccc(O)c(O)c1)O[C@@H](C(=O)O)[C@@H](O)C(=O)O [Caftaric Acid] | 2.96 | –
C[N+](C)(C)CC(O)CC(=O)[O-] (stereo not shown) [Carnitine] | 4.20 | –
O=C(O)C=Cc1ccccc1 [Cinnamic acid] | 4.01 | –
CC(O)(CC(=O)O)C(=O)O (stereo not shown) [Citramalic Acid] | 3.35 | –
OC[C@@H](O)[C@@H](O)CO [Erythritol] | 13.04 | –
O=C(O)/C=C/C(=O)O [Fumaric Acid] | 3.55 | –

SMILES | pKa (Strongest Acidic) [1] | also measured
O=C(O)[C@H](O)[C@@H](O)[C@@H](O)[C@H](O)CO [Galactonic Acid] | 3.39 | –
O=C[C@H](O)[C@@H](O)[C@@H](O)[C@H](O)C(=O)O [Galacturonic Acid] | 3.24 | –
O=C(O)/C=C\C(=O)O [Maleic Acid] | 3.05 | –
CC1CCC(C(C)C)C(O)C1 (stereo not shown) [Menthol] | 19.55 | –
COc1cccc(C(=O)O)c1 [Meta-Anisic Acid] | 3.84 | –
COc1ccccc1C(=O)O [Ortho-Anisic Acid] | 3.73 | –
COc1ccc(C(=O)O)cc1 [Para-Anisic Acid] | 4.37 | –
CC(=O)C(=O)O [Pyruvic Acid] | 2.93 | –
C=C1C[C@@]23CC[C@H]4[C@@](C)(CCC[C@@]4(C)C(=O)O)[C@@H]2CC[C@]1(O)C3 [Steviol] | 4.70 | –
O=C(O)CCC(=O)O [Succinic Acid] | 3.55 | –
OC[C@H]1O[C@H](O[C@]2(CCl)O[C@H](CCl)[C@@H](O)[C@@H]2O)[C@H](O)[C@@H](O)[C@H]1Cl [Sucralose] | 1.91 | –
OC[C@H]1O[C@@](CO)(O[C@H]2O[C@H](CO)[C@@H](O)[C@H](O)[C@H]2O)[C@@H](O)[C@@H]1O [Sucrose] | 11.84 | –
O=C(O)C(O)C(=O)O [Tartronic Acid] | 2.42 | –
OC[C@@H](O)[C@H](O)[C@@H](O)CO [Xylitol] | 12.76 | –
CN1CCC[C@H]1c1cccnc1.O=C(O)C[C@H](O)C(=O)O [monoclinic P21 (S)-nicotinium L-malate, (S)-nicotinium L-malate] | – | thermodynamic / thermal stability [3]: most thermodynamically favored and stable malate salt; thermodynamic / thermal stability ([3]; listed as Monoclinic P21 (S)-nicotinium L-malate): thermodynamically more stable than the orthorhombic P212121 (S)-nicotinium L-malate; degradation after 24 hours of UV irradiation [2]: no degradation
CN1CCC[C@H]1c1cccnc1.O=C(O)c1ccccc1O [monoclinic P21 (S)-nicotinium salicylate, (S)-nicotinium salicylate] | – | degradation after 24 hours of UV irradiation [2]: no degradation; degradation product formed during vaporization [4]: phenol was likely also formed
O=C(O)c1cc(=O)[nH]c(=O)[nH]1 [orotic acid] | – | degradation after 24 hours of UV irradiation [2]: no orotic acid degradation
CN1CCC[C@H]1c1cccnc1.O=C(O)C[C@H](O)C(=O)O [orthorhombic P212121 (S)-nicotinium L-malate] | – | thermodynamic / thermal stability [3]: more thermodynamically stable than the orthorhombic P212121 (S)-nicotinium D-malate; degradation after 24 hours of UV irradiation [2]: no degradation
